The text below walks through data of article PMC11009625, “Antibiotic class with potent in vivo activity targeting lipopolysaccharide synthesis in Gram-negative bacteria” (Proceedings of the National Academy of Sciences of the …, 2024).

Holding throughout (format): cell-based
The test system of assay [1] is clinical E. coli isolates (n=111). As to the kind of experiment: MIC distribution and MIC90, clinical E. coli isolates. The settings on record: Escherichia coli; n=111, isolates from Spain, Poland, Denmark and Wales. The procedure: (§1) Minimum inhibitory concentration (MIC) values were determined according to the Clinical Laboratory Standards Institute guidelines. Frequency of resistance was determined by plating ~5 × 10^8 bacterial cells on agar-solidified media plates containing test compound at concentrations corresponding to four times the measured solid-media MIC of the strains. Colonies were counted after 24 h, restreaked onto media containing the same concentration of compound, and the MIC remeasured against the assayed compound. Genomic DNA from isolated clones was sequenced by paired-end sequencing on an Illumina MiSeq device. Complete experimental details available in SI Appendix. […]
(§2) Minimum inhibitory concentration (MIC) determination. Broth microdilution and agar dilution MIC assays were conducted according to CLSI guidelines (M07-2012). Appropriate inoculation suspension density was assessed using a Sensititre Nephelometer with a Sensititre 0.5 […]
(§3) McFarland Standard. […]
(§4) To determine the […]
(§5) genotype of MDR strains from the ENABLE strain collection, de novo assembled contigs were analyzed using ResFinder (12–14) […]
(§6) MIC distribution versus E. coli (n=111)
(§7) Clinical Isolates from Spain, Poland, Denmark and Wales
(§8) Figure S4. MIC distribution and MIC90 versus clinical E. coli isolates
(§9) MIC distribution versus K. pneumoniae (n=104)
(§10) Figure S5. MIC distribution and MIC90 versus clinical K. pneumoniae isolates […]

Assay [2] relates to A. baumanii BM4454 and efflux-defective BM4652. As to the kind of experiment: MIC, A. baumannii laboratory strains. The settings on record: Acinetobacter baumannii. The procedure: as §1
Minimum inhibitory concentration (MIC) determination. Broth microdilution and agar dilution
MIC assays were conducted according to CLSI guidelines (M07-2012). Appropriate inoculation
suspension density was assessed using a Sensititre Nephelometer with a Sensititre 0.5
McFarland Standard. Serum MICs were conducted in 50% heat-inactivated pooled human

Assay [3] relates to clinical MDR E. coli isolates. As to the kind of experiment: MIC, clinical multi-drug resistant E. coli isolates. The note with it: Escherichia coli. As for the experimental part:
as §1, §2, §3
Whole-genome sequencing and data analysis. Genomic DNA of selected clones was prepared using an Epicentre MasterPure Complete DNA Purification Kit. Whole-genome sequencing libraries were prepared using an Illumina Nextera XT Library Preparation Kit. The libraries were sequenced using an Illumina MiSeq device with a V3 600-cycle reagent kit. Whole-genome sequencing data was analyzed using CLC Genomics Workbench Version 11. To determine the genotype of MDR strains from the ENABLE strain collection, de novo assembled contigs were […]

Assay [4] has as its system clinical MDR K. pneumoniae isolates. As to the kind of experiment: MIC, clinical multi-drug resistant K. pneumoniae isolates. The note with it: Klebsiella pneumoniae. The procedure: as §1, §2, §3, §4
genotype of MDR strains from the ENABLE strain collection, de novo assembled contigs were […]

Assay [5] has as its system clinical K. pneumoniae isolates (n=104). As to the kind of experiment: MIC distribution and MIC90, clinical K. pneumoniae isolates. The settings on record: Klebsiella pneumoniae; n=104, isolates from Spain, Poland, Denmark and Wales. As for the experimental part:
as §1, §2, §3, §4, §5, §6, §7, §8, §9, §10

Setting [6] is: read-out: MIC A. baumanii BM4454.
Setting [7] is: read-out: MIC A. baumanii BM4652.
[8] abbreviates: read-out: MIC K. pneumoniae EN0140.
Setting [9] is: read-out: MIC K. pneumoniae EN0142.
[10] abbreviates: read-out: MIC K. pneumoniae EN0143.
[11] abbreviates: read-out: MIC K. pneumoniae EN0144.
Where [12] appears, read: read-out: MIC K. pneumoniae EN0145.
[13] abbreviates: read-out: MIC K. pneumoniae EN0233.
Where [14] appears, read: read-out: MIC K. pneumoniae EN0245.
The mark [15] stands for this setting: read-out: MIC K. pneumoniae EN0504.

Molecules are shown by their SMILES. In brackets after ≈: the same amount, converted by molar mass. Where two headings read alike, the source gives them in different places.

The MIC90 is an inhibitory concentration at the 90% level, which refers to growth in some studies and to a panel of isolates in others. Low values mean higher susceptibility, high ones lower susceptibility. As usually defined, the MIC is the least concentration at which growth counts as inhibited. On to `Cc1cc(C#N)nc(N2CCN(S(=O)(=O)c3ccc(NC(=O)c4cc(CNCCCN)ccc4N(C)S(C)(=O)=O)cc3)CC2)n1.Cl.Cl` [EBL-3599], for which the results for the MIC90 in assay [1] and in assay [5] were 4 µg/mL and 8 µg/mL, respectively. For the same compound, the MIC was more than 64 µg/mL in assay [2] (setting [6]); 32 µg/mL in assay [2] (setting [7]); 2 µg/mL in assay [3] (read-out: MIC E. coli EN0134); 2 µg/mL in assay [3] (read-out: MIC E. coli EN0135); 2 µg/mL in assay [3] (read-out: MIC E. coli EN0136); 4 µg/mL in assay [3] (read-out: MIC E. coli EN0137). In addition, the MIC in assay [3] (read-out: MIC E. coli EN0138) came out at 2 µg/mL; in assay [3] (read-out: MIC E. coli EN0139) it was 4 µg/mL; in assay [3] (read-out: MIC E. coli EN0303), 16 µg/mL; in assay [3] (read-out: MIC E. coli EN0481), 2 µg/mL; in assay [4] (setting [8]), 1 µg/mL; in assay [4] (setting [9]) it was 2 µg/mL. Besides, the MIC came to 2 µg/mL in assay [4] (setting [10]); 2 µg/mL in assay [4] (setting [11]); 4 µg/mL in assay [4] (setting [12]); 4 µg/mL in assay [4] (setting [13]); 8 µg/mL in assay [4] (setting [14]); 4 µg/mL in assay [4] (setting [15]).

As to `Cc1cc(C#N)nc(N2CCN(S(=O)(=O)c3ccc(NC(=O)c4cc(CN5CC(CN)C5)ccc4N(C)S(C)(=O)=O)cc3)CC2)n1` [EBL-3647], the MIC90 in assay [1] is 4 µg/mL (≈ 5.99 µM); in assay [5] it was 8 µg/mL (≈ 12 µM). For the same compound, the MIC was more than 64 µg/mL in assay [2] (setting [6]); 64 µg/mL (≈ 95.8 µM) in assay [2] (setting [7]); 2 µg/mL (≈ 2.99 µM) in assay [3] (read-out: MIC E. coli EN0134); 2 µg/mL (≈ 2.99 µM) in assay [3] (read-out: MIC E. coli EN0135); 4 µg/mL (≈ 5.99 µM) in assay [3] (read-out: MIC E. coli EN0136); 2 µg/mL (≈ 2.99 µM) in assay [3] (read-out: MIC E. coli EN0137). The MIC in assay [3] (read-out: MIC E. coli EN0138) came to 4 µg/mL (≈ 5.99 µM); in assay [3] (read-out: MIC E. coli EN0139), 4 µg/mL (≈ 5.99 µM); in assay [3] (read-out: MIC E. coli EN0303), 16 µg/mL (≈ 24 µM); in assay [3] (read-out: MIC E. coli EN0481) it was 1 µg/mL (≈ 1.5 µM); in assay [4] (setting [8]), 1 µg/mL (≈ 1.5 µM); in assay [4] (setting [9]), 2 µg/mL (≈ 2.99 µM). Moreover, the MIC in assay [4] (setting [10]) is 2 µg/mL (≈ 2.99 µM); in assay [4] (setting [11]) it was 2 µg/mL (≈ 2.99 µM); in assay [4] (setting [12]) it was 4 µg/mL (≈ 5.99 µM); in assay [4] (setting [13]) it was 4 µg/mL (≈ 5.99 µM); in assay [4] (setting [14]) it was 4 µg/mL (≈ 5.99 µM); in assay [4] (setting [15]), 4 µg/mL (≈ 5.99 µM).
